# Laboratory results from ChEMBL document CHEMBL3751689, “Synthesis and biological properties of prodrugs of (S)-3-(adenin-9-yl)-2-(phosphonomethoxy)propanoic acid” (Eur J Med Chem, 2016).
# pEC50: −log10 of the molar value. Activity calls are given as the source filed them. No cut-off for these calls is given here.
# Experiments:
# [1] = Cytotoxicity against human HuH7 infected with HCV genotype 2a cells after 3 days by calcein-AM dye based fluorescence analysis; format: cell-based, Huh-7; conditions: HuH7 cells infected with HCV genotype 2a
# [2] = Cytotoxicity against human HeLa cells; format: cell-based
# Hepatitis C virus [3] = test: Antiviral activity against HCV genotype 2a replicon infected in HuH7 cells after 3 days by renilla luciferase assay; format: functional, organism-based, Hepacivirus hominis; conditions: for pEC50: Huh-7, 72 h; for Activity: Hepacivirus hominis, Huh-7
# Hepatitis C virus [4] = test: Antiviral activity against HCV genotype 1b replicon infected in HuH7 cells after 3 days by renilla luciferase assay; format: functional, organism-based, Hepacivirus hominis; conditions: for pEC50: Huh-7, 72 h; for Activity: Hepacivirus hominis, Huh-7
# [5] = Cytotoxicity against human MT4 cells; format: cell-based
# [6] = Cytotoxicity against human HuH7 infected with HCV genotype 1b cells after 3 days by calcein-AM dye based fluorescence analysis; format: cell-based, Huh-7; conditions: HuH7 cells infected with HCV genotype 1b
# [7] = Cytotoxicity against human HuH7 infected with HCV genotype 1a cells after 3 days by calcein-AM dye based fluorescence analysis; format: cell-based, Huh-7; conditions: HuH7 cells infected with HCV genotype 1a
# Hepatitis C virus [8] = test: Antiviral activity against HCV genotype 1a replicon infected in human HuH7 cells after 3 days by renilla luciferase assay; format: functional, organism-based, Hepacivirus hominis; conditions: subtype 1a; for pEC50: Huh-7, 72 h; for Activity: Hepacivirus hominis, Huh-7
# Human rhinovirus 1A = test: Antiviral activity against HRV1A infected in HeLa cells; format: functional, organism-based
# [9] = tested on: Human immunodeficiency virus 1; test: Antiviral activity against HIV1 infected in MT4 cells; format: functional, organism-based; conditions: Human immunodeficiency virus 1, MT4
# Bordetella pertussis = test: Inhibition of Bordetella pertussis CyaA in mouse J774A.1 cells assessed as cAMP formation at 10 uM by immunoassay relative to control; format: cell-based; conditions: values are per cent of control
# [10] = Selectivity index, ratio of CC50 for human HuH7 cells to EC50 for HCV genotype 2a; set-up: species or system Huh-7
# [11] = Selectivity index, ratio of CC50 for human HuH7 cells to EC50 for HCV genotype 1a; set-up: species or system Huh-7
# [12] = Selectivity index, ratio of CC50 for human HuH7 cells to EC50 for HCV genotype 1b; set-up: species or system Huh-7
SMILES,CC50 at 72 h [1] [µM],CC50 [2] [µM],pEC50 (Hepatitis C virus [3]),pEC50 (Hepatitis C virus [4]),CC50 [5] [µM],CC50 at 72 h [6] [µM],CC50 at 72 h [7] [µM],pEC50 (Hepatitis C virus [8]),pEC50 (Human rhinovirus 1A),pEC50 [9],residual activity (Bordetella pertussis) [%],Activity (Hepatitis C virus [3]),Activity (Hepatitis C virus [4]),Activity (Hepatitis C virus [8]),Ratio CC50/EC50 [10],Ratio CC50/EC50 [11],Ratio CC50/EC50 [12]
Nc1ncnc2c1ncn2C[C@H](OCP(=O)(O)O)C(=O)O,> 44.4,> 50,< 4.35,< 4.35,> 53.2,> 44.4,> 44.4,< 4.35,< 4.30,< 4.27,,,,,,,
CCOC(=O)[C@H](C)NP(=O)(CO[C@@H](Cn1cnc2c(N)ncnc21)C(=O)OC)N[C@@H](C)C(=O)OCC,> 44.4,> 50,4.41,< 4.35,40.5,> 44.4,> 44.4,< 4.35,< 4.30,< 4.27,139,,,,,,
NC(=O)[C@H](Cn1cnc2c(N)ncnc21)OCP(=O)(O)O,,,,,,,,,,,66,inactive,inactive,inactive,,,
CCOC(=O)[C@H](C)NC(=O)[C@H](Cn1cnc2c(N)ncnc21)OCP(=O)(N[C@@H](C)C(=O)OCC)N[C@@H](C)C(=O)OCC,> 44.4,> 50,< 4.35,< 4.35,> 53.2,> 44.4,> 44.4,< 4.35,< 4.30,< 4.27,,,,,,,
CCOC(=O)[C@H](Cc1ccccc1)NP(=O)(CO[C@@H](Cn1cnc2c(N)ncnc21)C(=O)OC)Oc1ccccc1 (some centres not stated),25.3,> 50,6.22,5.82,1.4,> 44.4,42.6,6.10,< 4.30,< 4.27,68,,,,30,30,30
CCCCCCCCCCCCCCCCOCCCOP(=O)(O)CO[C@@H](Cn1cnc2c(N)ncnc21)C(=O)OC,> 44.4,> 50,5.02,4.51,3.7,> 44.4,> 44.4,4.69,< 4.30,< 4.27,140,,,,,,
CCOC(=O)[C@H](Cc1ccccc1)NP(=O)(CO[C@@H](Cn1cnc2c(N)ncnc21)C(=O)OC)N[C@@H](Cc1ccccc1)C(=O)OCC,12.6,> 50,6.22,5.96,0.7,30.4,18.3,6.22,< 4.30,< 4.27,112,,,,30,30,30
COC(=O)[C@H](Cn1cnc2c(N)ncnc21)OCP(=O)(O)O,,,,,,,,,,,90,inactive,inactive,inactive,,,
Nc1ncnc2c1ncn2C[C@H](OCP(=O)(O)O)C(=O)NC1CC1,,,,,,,,,,,135,inactive,inactive,inactive,,,
